Measured values from ChEMBL document CHEMBL4480380, “Identification and biological evaluation of novel benzothiazole derivatives bearing a pyridine-semicarbazone moiety as apoptosis inducers via activation of procaspase-3 to caspase-3” (Medchemcomm, 2019).
Calls of active or inactive are those of the source. The rule behind the calls is not given here.

Assays:
U-937 [1] = assay: Induction of apoptosis in human U937 cells assessed as caspase-3 activity at 30 uM using Ac-DEVD-AFC as substrate preincubated for 16 hrs followed by substrate addition and measured after 60 mins by fluorescence assay (reference value: 7+/- 1%); format: functional
MCF7 = assay: Antiproliferative activity against human MCF7 cells after 24 hrs by CCK-8 assay; format: functional, cell-based; conditions: MCF7, 24 h
[2] = Selectivity ratio of IC50 for human MCF7 cells to IC50 for human procaspase-3 over-expressing U937 cells; format: functional
U-937 [3] = assay: Antiproliferative activity against human procaspase-3 over-expressing U937 cells after 24 hrs by CCK-8 assay; format: functional, cell-based; conditions: U-937, 24 h
U-937 [4] = assay: Induction of apoptosis in human U937 cells assessed as early apoptotic cells at 6.6 uM after 48 hrs by Annexin V-FITC/propidium iodide staining-based flow cytometric analysis (reference value: 6.16%); format: functional
U-937 [5] = assay: Induction of apoptosis in human U937 cells assessed as early apoptotic cells at 3.3 uM after 24 hrs by Annexin V-FITC/propidium iodide staining-based flow cytometric analysis (reference value: 4.88%); format: functional
[6] = Toxicity in zebrafish AB embryos at 40 uM after 48 hrs post fertilization by stereo microscopic analysis; design: species or system Danio rerio; conditions: in vivo
U-937 [7] = assay: Induction of apoptosis in human U937 cells assessed as early apoptotic cells at 6.6 uM after 24 hrs by Annexin V-FITC/propidium iodide staining-based flow cytometric analysis (reference value: 4.88%); format: functional
U-937 [8] = assay: Induction of apoptosis in human U937 cells assessed as late apoptotic cells at 3.3 uM after 48 hrs by Annexin V-FITC/propidium iodide staining-based flow cytometric analysis (reference value: 3.89%); format: functional
[9] = Toxicity in zebrafish AB embryos at 5 to 20 uM measured at 24 to 72 hrs post fertilization by stereo microscopic analysis; design: species or system Danio rerio; conditions: in vivo
Caspase-3 (Homo sapiens) = target: T1, Caspase-3 (Homo sapiens) (UniProt P42574); assay: Activation of procaspase-3 (unknown origin) at 10 uM using Ac-DEVD-AFC as substrate preincubated for 4 hrs followed by substrate addition and measured after 5 mins by fluorescence assay relative to control
T1 sequence (whole entry): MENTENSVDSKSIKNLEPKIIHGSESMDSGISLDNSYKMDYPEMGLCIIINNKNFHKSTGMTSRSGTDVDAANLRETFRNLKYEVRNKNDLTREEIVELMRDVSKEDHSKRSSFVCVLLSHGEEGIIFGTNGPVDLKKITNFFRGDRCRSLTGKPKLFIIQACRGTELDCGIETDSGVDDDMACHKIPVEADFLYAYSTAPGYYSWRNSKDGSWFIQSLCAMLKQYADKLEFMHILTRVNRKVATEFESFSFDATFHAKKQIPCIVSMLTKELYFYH

[10] = Half life in mouse liver microsomes in presence of NADPH by LC-MS analysis; format: ADME, Microsome
[11] = Intrinsic clearance in human liver microsomes in presence of NADPH by LC-MS analysis; format: ADME, Microsome; conditions: read-out: CLH
Danio rerio [12] = species: Danio rerio; assay: Induction of apoptosis in zebrafish AB embryos assessed as increase in bax mRNA expression at 40 to 60 uM after 24 hrs post fertilization by RT-PCR analysis; format: functional, organism-based
[13] = Intrinsic clearance in mouse liver microsomes in presence of NADPH by LC-MS analysis; format: ADME, Microsome; conditions: read-out: CLH
[14] = Intrinsic clearance in rat liver microsomes in presence of NADPH by LC-MS analysis; format: ADME, Microsome; conditions: read-out: CLH
[15] = Half life in human liver microsomes in presence of NADPH by LC-MS analysis; format: ADME, Microsome
U-937 [16] = assay: Induction of apoptosis in human U937 cells assessed as late apoptotic cells at 6.6 uM after 24 hrs by Annexin V-FITC/propidium iodide staining-based flow cytometric analysis (reference value: 3.27%); format: functional
U-937 [17] = assay: Induction of apoptosis in human U937 cells assessed as early apoptotic cells at 3.3 uM after 48 hrs by Annexin V-FITC/propidium iodide staining-based flow cytometric analysis (reference value: 6.16%); format: functional
U-937 [18] = assay: Induction of apoptosis in human U937 cells assessed as late apoptotic cells at 6.6 uM after 48 hrs by Annexin V-FITC/propidium iodide staining-based flow cytometric analysis (reference value: 3.89%); format: functional
Danio rerio [19] = species: Danio rerio; assay: Induction of apoptosis in zebrafish AB embryos assessed as accumulation of dying cells in head at 40 to 60 uM after 24 hrs post fertilization by acridine orange staining-based fluorescence microscopic analysis; format: functional, organism-based
Danio rerio [20] = species: Danio rerio; assay: Induction of apoptosis in zebrafish AB embryos assessed as accumulation of dying cells in cranial neural crest at 40 to 60 uM after 24 hrs post fertilization by acridine orange staining-based fluorescence microscopic analysis; format: functional, organism-based
[21] = Toxicity in zebrafish AB embryos assessed as induction of mortality at 40 uM after 72 hrs post fertilization by stereo microscopic analysis; design: species or system Danio rerio; conditions: in vivo
U-937 [22] = assay: Induction of apoptosis in human U937 cells assessed as late apoptotic cells at 3.3 uM after 24 hrs by Annexin V-FITC/propidium iodide staining-based flow cytometric analysis (reference value: 3.27%); format: functional
[23] = Half life in rat liver microsomes in presence of NADPH by LC-MS analysis; format: ADME, Microsome

CN(C)Cc1ccc(NC(=O)NN=C(c2ccccc2)c2ccccc2)cc1
Activity (U-937 [1]): 28%
IC50 (MCF7): 12.1 µM
Ratio IC50 [2]: <1
IC50 (U-937 [3]): > 25 µM

CC1CCN(Cc2ccc(NC(=O)NN=C(c3ccccn3)c3ccccn3)cc2)CC1
IC50 (MCF7): > 40 µM
IC50 (U-937 [3]): > 40 µM

CCN(CC)Cc1ccc2nc(NC(=O)NN=C(c3ccccn3)c3ccccn3)sc2c1
Activity (U-937 [1]): 119%
IC50 (MCF7): > 40 µM
Ratio IC50 [2]: 4.3
IC50 (U-937 [3]): 9.1 µM

CCN(CC)Cc1ccc2nc(NC(=O)N/N=C(\C)c3ccc(F)cc3)sc2c1
Activity (U-937 [1]): 40%
IC50 (MCF7): 12.3 µM
Ratio IC50 [2]: <1
IC50 (U-937 [3]): > 40 µM

CCN(CC)Cc1ccc(NC(=O)N/N=C(\C)c2ccccn2)cc1
IC50 (MCF7): > 40 µM
IC50 (U-937 [3]): > 40 µM

C/C(=N\NC(=O)Nc1nc2ccc(CN3CCC(C)CC3)cc2s1)c1cnccn1
IC50 (MCF7): 11.8 µM
Ratio IC50 [2]: <1
IC50 (U-937 [3]): > 40 µM

CC1CCN(Cc2ccc3nc(NC(=O)NN=C(c4ccccn4)c4ccccn4)sc3c2)CC1
Activity (U-937 [4]): 26.89%
Activity (U-937 [5]): 15.85%
Activity [6]: Toxic
Activity (U-937 [7]): 19.27%
Activity (U-937 [1]): 114%
Activity (U-937 [8]): 9.86%
IC50 (MCF7): > 40 µM
Activity [9]: Non-Toxic
Ratio IC50 [2]: 6
Activity (Caspase-3 (Homo sapiens)): 92.1%
half-life [10]: 16.7 min
CLint scaled [11]: 22 mL/min/kg
Activity (Danio rerio [12]): Active
CLint scaled [13]: 326 mL/min/kg
CLint scaled [14]: 33.6 mL/min/kg
half-life [15]: 79.1 min
Activity (U-937 [16]): 8.5%
Activity (U-937 [17]): 20.55%
Activity (U-937 [18]): 17.66%
Activity (Danio rerio [19]): Active
IC50 (U-937 [3]): 6.6 µM
Activity (Danio rerio [20]): Active
Activity [21]: Toxic
Activity (U-937 [22]): 6.75%
half-life [23]: 73.9 min

C=CCc1cccc(/C=N/NC(=O)CN2CCN(Cc3ccccc3)CC2)c1O [PAC-1]
Activity (U-937 [1]): 100%
IC50 (MCF7): > 40 µM
Ratio IC50 [2]: 6.6
IC50 (U-937 [3]): 6 µM

O=C(c1ccc(F)cc1)C1CCN(CCn2c(=O)[nH]c3ccccc3c2=O)CC1 [KETANSERIN]
half-life [10]: 20.5 min
CLint scaled [11]: 48.2 mL/min/kg
CLint scaled [13]: 267 mL/min/kg
CLint scaled [14]: 173 mL/min/kg
half-life [15]: 36.1 min
half-life [23]: 14.4 min

C/C(=N\NC(=O)Nc1nc2ccc(CN3CCC(C)CC3)cc2s1)c1ccccc1
IC50 (MCF7): > 40 µM
IC50 (U-937 [3]): > 40 µM

CN(C)Cc1ccc2nc(NC(=O)N/N=C/c3ccccn3)sc2c1
IC50 (MCF7): > 40 µM
Ratio IC50 [2]: 1.6
IC50 (U-937 [3]): 23.2 µM

CCN(CC)Cc1ccc(NC(=O)NN=C(c2ccccn2)c2ccccn2)cc1
IC50 (MCF7): > 40 µM
IC50 (U-937 [3]): > 40 µM

C/C(=N\NC(=O)Nc1ccc(CN2CCC(C)CC2)cc1)c1ccccn1
IC50 (MCF7): > 40 µM
IC50 (U-937 [3]): > 40 µM

C/C(=N\NC(=O)Nc1nc2ccc(CN(C)C)cc2s1)c1ccccn1
Activity (U-937 [1]): 68%
IC50 (MCF7): > 40 µM
Ratio IC50 [2]: 2
IC50 (U-937 [3]): 20.1 µM
